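Method: 48-hour compound exposure of cells in 96-well plates, five concentrations, linear interpolation of endpoints. Abbreviation: GI50, concentration required for 50% inhibition of growth.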 Active and inactive are the calls of the source. Rule as the data show it: active = GI50 up to about 1.1 µM and inactive = higher.
What was measured:
Experiment in all cases: inhibition of tumour cell growth, NCI panel, 48 h
ACHN = tested on: ACHN
BT-549 = tested on: BT-549
CCRF-CEM = tested on: CCRF-CEM
DU-145 = tested on: DU-145
HCT-116 = tested on: HCT-116
HT-29 = tested on: HT-29
Hs-578T = tested on: Hs-578T
K562 = tested on: K562
KM12 = tested on: KM12
M14 = tested on: M14
MCF7 = tested on: MCF7
MDA-MB-435 = tested on: MDA-MB-435
OVCAR-3 = tested on: OVCAR-3
PC-3 = tested on: PC-3
RPMI-8226 = tested on: RPMI-8226
RXF 393 = tested on: RXF 393
SK-MEL-28 = tested on: SK-MEL-28
SK-MEL-2 = tested on: SK-MEL-2
SN12C = tested on: SN12C
TK-10 = tested on: TK-10

| SMILES | GI50 (ACHN) | GI50 (BT-549) | GI50 (CCRF-CEM) | GI50 (DU-145) | GI50 (HCT-116) | GI50 (HT-29) | GI50 (Hs-578T) | GI50 (K562) | GI50 (KM12) | GI50 (M14) | GI50 (MCF7) | GI50 (MDA-MB-435) | GI50 (OVCAR-3) | GI50 (PC-3) | GI50 (RPMI-8226) | GI50 (RXF 393) | GI50 (SK-MEL-28) | GI50 (SK-MEL-2) | GI50 (SN12C) | GI50 (TK-10) |
| --- | --- | --- | --- | --- | --- | --- | --- | --- | --- | --- | --- | --- | --- | --- | --- | --- | --- | --- | --- | --- |
| Cc1noc2nnn(-c3ccc(Cl)cc3)c(=O)c12 | 3.59 µM (inactive) | 3.16 µM (inactive) | 0.355 µM (active) | 3.72 µM (inactive) | 2.89 µM (inactive) | 4.42 µM (inactive) | 18.6 µM (inactive) | 1.3 µM (inactive) | 11.7 µM (inactive) | 11.8 µM (inactive) | 2.67 µM (inactive) | 2.95 µM (inactive) | 2.36 µM (inactive) | 3.71 µM (inactive) | 0.36 µM (active) | 0.879 µM (active) | 10.8 µM (inactive) | 3.24 µM (inactive) | 3.89 µM (inactive) | 9.06 µM (inactive) |
| O=c1[nH]nc(Cc2ccccc2)[nH]1 | > 100 µM (inactive) | > 100 µM (inactive) | > 100 µM (inactive) | > 100 µM (inactive) | > 100 µM (inactive) | > 100 µM (inactive) | > 100 µM (inactive) | > 100 µM (inactive) | > 100 µM (inactive) | > 100 µM (inactive) | > 100 µM (inactive) | > 100 µM (inactive) | > 100 µM (inactive) | > 100 µM (inactive) | > 100 µM (inactive) | > 100 µM (inactive) | > 100 µM (inactive) | > 100 µM (inactive) | > 100 µM (inactive) | > 100 µM (inactive) |
| CN(C)Cc1cc(/N=N/c2ccccc2)ccc1O | 29 µM (inactive) | 30.8 µM (inactive) | 42.3 µM (inactive) | 22.7 µM (inactive) | > 100 µM (inactive) | 32.4 µM (inactive) | 33 µM (inactive) | 24.2 µM (inactive) | 34.6 µM (inactive) | 38.9 µM (inactive) | 89.1 µM (inactive) | 34.8 µM (inactive) | 68.2 µM (inactive) | 75.7 µM (inactive) | 56 µM (inactive) | 3.94 µM (inactive) | 51.4 µM (inactive) | 38.9 µM (inactive) | > 100 µM (inactive) | 34.6 µM (inactive) |
| Cc1nn(-c2ccccc2)c(C)c1/C=N/NC(=O)c1sc(=S)n(-c2ccccc2)c1N | 1.48 µM (inactive) | 9.71 µM (inactive) | 5.16 µM (inactive) | 9.66 µM (inactive) | 4.5 µM (inactive) | 2.69 µM (inactive) | 1.85 µM (inactive) | 0.681 µM (active) | 6.05 µM (inactive) | 4.92 µM (inactive) | 5.65 µM (inactive) | 4.47 µM (inactive) | 16.1 µM (inactive) | 4.03 µM (inactive) | 3.35 µM (inactive) | 1.46 µM (inactive) | 3.25 µM (inactive) | 29 µM (inactive) | 6.28 µM (inactive) | 1.63 µM (inactive) |
| COc1cc2c(c(O)c1OC)-c1c(cc(OC)c(OC)c1OC)CC(C)C(C)C2 (stereo not given) [GOMISIN K3] | 39.1 µM (inactive) | 40.8 µM (inactive) | 23.4 µM (inactive) | 45.8 µM (inactive) | 34.7 µM (inactive) | 40.6 µM (inactive) | 69.8 µM (inactive) | 38.8 µM (inactive) | 61.1 µM (inactive) | 45.1 µM (inactive) | 33 µM (inactive) | 50 µM (inactive) | 47.1 µM (inactive) | 28.6 µM (inactive) | 39.4 µM (inactive) | 30.9 µM (inactive) | 67.1 µM (inactive) | 45.2 µM (inactive) | 47.8 µM (inactive) | 26.5 µM (inactive) |
